Laboratory results as given in patent US10328053B2 (Gilead Sciences, Inc., priority 2016, dated 2019).

What was measured:
[1] = Hepatic Stability Assay (in vitro half-life method); format: in vitro ADME; design: dose or concentration left out as unconfirmed; conditions: pooled cryopreserved hepatocytes, 37° C., 1×10^6 cells/mL, 0-6 hours, LC-MS/MS, 39.5 hours is the maximum detectable half life, read-out: t½ (converted)
Method in brief: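 Pooled cryopreserved hepatocytes (1×10^6 cells/mL) incubated with compound at […] test concentration, 37° C.; samples at 0, 1, 3 and 6 h quantified by LC-MS/MS. Half-life from rate of compound disappearance, scaled to predicted hepatic clearance via well-stirred model.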

[2] = test system: HBV AD38 viral particles in HepG2 cell line overexpressing NTCP; test: HBV DNA Quantification Assay; format: cell-based; conditions: Hepatitis B virus, HepG2, 120 h, HBV-infected HepG2-NTCP cells, 5 days incubation, HBV DNA in culture supernatant (QuantiGene 2.0); geometric mean of a minimum of four determinations
Description: HBV DNA Quantification Assay
A HepG2 cell line overexpressing the HBV virus attachment receptor sodium-taurocholate cotransporting polypeptide (NTCP) was grown to confluency in DMEM growth medium, Dulbecco's Modified Eagle Medium without sodium pyruvate (Life Technologies, Rockville, Md.) supplemented with 10% FBS (Thermo Scientific, Waltham, Md.), 1% penicillin/streptomycin (Life Technologies, Rockville, Md.) and 2 mM L-glutamine (Life Technologies, Rockville, Md.) in T175 flasks. Cells were infected with HBV AD38 viral particles (Texcell, Frederick, USA) at 4000 genome equivalents per cell. After allowing viral infection to take place for 4 days, the infected cells were harvested from the flasks by trypsinization, washed twice with OptiMEM (Life Technologies, Rockville, Md.) and re-suspended in DMEM containing 2% FBS and 1% DMSO at a density of 0.25E6 cells/ml. Infected cells were seeded on 384 well collagen coated plates (Greiner, Austria) at a density of 20,000 cells/well containing serially diluted compounds of the present disclosure or DMSO (0.5%) in a final volume of 80 μl. The assay plates were incubated for a period of 5 days and the antiviral activity of the test compounds were assayed by detecting the presence of HBV DNA in the culture supernatant using the QuantiGene™ 2.0 nucleic acid quantification kit (Affymetrix, Santa Clara, Calif.).
The culture supernatant was harvested and treated with lysis buffer containing Proteinase K (Affymetrix, Santa Clara, Calif.). The supernatant was incubated with HBV viral DNA specific probes (Affymetrix, Santa Clara, Calif.) for 30 minutes at 55° C. This was followed by addition of 0.2M NaOH for 30 minutes at room temperature to denature the DNA, followed by addition of Neutralization buffer (Affymetrix, Santa Clara, Calif.). The resulting lysed and neutralized supernatant was then added to QuantiGene™ 2.0 384 well plates coated with capture oligonucleotides and incubated overnight at 55° C. The HBV specific probe set consists of Capture Extender oligonucleotides (CE's) and blocking probes. Following the overnight incubation, the wells were incubated for one hour sequentially with a Pre-Amplifier, Amplifier and Labeled probes conjugated to alkaline phosphatase with a wash step between incubations. After the final wash step, the alkaline phosphatase substrate (Luminol APS5) was added and the resulting luminescence signal was read in an EnVision Multilabel Plate Reader (PerkinElmer, Santa Clara, Calif.). The EC50 values were calculated from the fit of the dose—response curves to a four-parameter equation. All EC50 values represent geometric mean values of a minimum of four determinations.

Compound | half-life [1] | EC50 [2]
C#CC1(NC(=O)C(=O)c2c(C)c(C(=O)Nc3cc(F)c(F)c(F)c3)n3c2CCC3)CC1 [Example 92, 7-(2-((1-ethynylcyclopropyl)amino)-2-oxoacetyl)-6-methyl-N-(3,4,5-trifluorophenyl)-2,3-dihydro-1H-pyrrolizine-5-carboxamide] | 132 min | 6.4 nM
Cc1c(C(=O)C(=O)NC2(C(=O)N3CC4(C3)CS(=O)(=O)C4)CC(F)(F)C2)c2n(c1C(=O)Nc1ccc(F)c(Cl)c1)CCC2 [Example 13, N-(3-chloro-4-fluorophenyl)-7-(2-((1-(2,2-dioxido-2-thia-6-azaspiro[3.3]heptane-6-carbonyl)-3,3-difluorocyclobutyl)amino)-2-oxoacetyl)-6-methyl-2,3-dihydro-1H-pyrrolizine-5-carboxamide] | 984 min | 252 nM
Cc1c(C(=O)C(=O)NC2(c3c[nH]nn3)COC2)c2n(c1C(=O)Nc1ccc(F)c(F)c1)[C@@H]1C[C@@H]1C2 [Example 87, (1aR,6aR)-5-(2-((3-(1H-1,2,3-triazol-4-yl)oxetan-3-yl)amino)-2-oxoacetyl)-N-(3,4-difluorophenyl)-4-methyl-1,1a,6,6a-tetrahydrocyclopropa[b]pyrrolizine-3-carboxamide] | 378 min | 12.5 nM
Cc1c(C(=O)C(=O)NC2(c3nncs3)CC2)c2n(c1C(=O)Nc1cc(F)c(F)c(F)c1)[C@@H]1C[C@@H]1C2 [Example 57, (1aR,6aR)-5-(2-((1-(1,3,4-thiadiazol-2-yl)cyclopropyl)amino)-2-oxoacetyl)-4-methyl-N-(3,4,5-trifluorophenyl)-1,1a,6,6a-tetrahydrocyclopropa[b]pyrrolizine-3-carboxamide] | 480 min | 9.9 nM
C#CC1(NC(=O)C(=O)c2c(C)c(C(=O)Nc3ccc(F)c(Cl)c3)n3c2CCC3)CC1 [Example 94, N-(3-chloro-4-fluorophenyl)-7-(2-((1-ethynylcyclopropyl)amino)-2-oxoacetyl)-6-methyl-2,3-dihydro-1H-pyrrolizine-5-carboxamide] | 174 min | 5.8 nM
C#CC1(NC(=O)C(=O)c2c(C)c(C(=O)Nc3ccc(F)c(Cl)c3)n3c2CCC3)CC(F)(F)C1 [Example 60, N-(3-chloro-4-fluorophenyl)-7-(2-((1-ethynyl-3,3-difluorocyclobutyl)amino)-2-oxoacetyl)-6-methyl-2,3-dihydro-1H-pyrrolizine-5-carboxamide] | 234 min | 1.8 nM
Cc1c(C(=O)C(=O)NC2(c3c[nH]nn3)CC(F)(F)C2)c2n(c1C(=O)Nc1ccc(F)c(C#N)c1)[C@@H]1C[C@@H]1C2 [Example 41, (1aR,6aR)—N-(3-cyano-4-fluorophenyl)-5-(2-((3,3-difluoro-1-(1H-1,2,3-triazol-4-yl)cyclobutyl)amino)-2-oxoacetyl)-4-methyl-1,1a,6,6a-tetrahydrocyclopropa[b]pyrrolizine-3-carboxamide] | 294 min | 7.5 nM
Cc1c(C(=O)C(=O)NC2(c3nncs3)CC2)c2n(c1C(=O)Nc1ccc(F)c(Cl)c1)CCC2 [Example 12, 7-(2-((1-(1,3,4-thiadiazol-2-yl)cyclopropyl)amino)-2-oxoacetyl)-N-(3-chloro-4-fluorophenyl)-6-methyl-2,3-dihydro-1H-pyrrolizine-5-carboxamide] | 384 min | 5 nM
Cc1c(C(=O)C(=O)NC2(c3c[nH]nn3)CC2)c2n(c1C(=O)Nc1ccc(F)c(Cl)c1)CCC2 [Example 6, 7-(2-((1-(1H-1,2,3-Triazol-4-yl)cyclopropyl)amino)-2-oxoacetyl)-N-(3-chloro-4-fluorophenyl)-6-methyl-2,3-dihydro-1H-pyrrolizine-5-carboxamide] | 492 min | 11.1 nM
Cc1c(C(=O)C(=O)NC2(C(=O)N3CC(F)C3)CC(F)(F)C2)c2n(c1C(=O)Nc1ccc(F)c(Cl)c1)CCC2 [Example 14, N-(3-chloro-4-fluorophenyl)-7-(2-((3,3-difluoro-1-(3-fluoroazetidine-1-carbonyl)cyclobutyl)amino)-2-oxoacetyl)-6-methyl-2,3-dihydro-1H-pyrrolizine-5-carboxamide] | 126 min | 8.8 nM
CNC(=O)[C@@](C)(NC(=O)C(=O)c1c(C)c(C(=O)Nc2ccc(F)c(F)c2)n2c1CCC2)C(F)(F)F [Example 137, (R)—N-(3,4-difluorophenyl)-6-methyl-7-(2-oxo-2-((1,1,1-trifluoro-2-methyl-3-(methylamino)-3-oxopropan-2-yl)amino)acetyl)-2,3-dihydro-1H-pyrrolizine-5-carboxamide] | 444 min | 158 nM
Cc1c(C(=O)C(=O)NC2(c3c[nH]nn3)CC(F)(F)C2)c2n(c1C(=O)Nc1ccc(F)cc1)CCC2 [Example 32, 7-(2-((3,3-difluoro-1-(1H-1,2,3-triazol-4-yl)cyclobutyl)amino)-2-oxoacetyl)-N-(4-fluorophenyl)-6-methyl-2,3-dihydro-1H-pyrrolizine-5-carboxamide] | 528 min | 8.5 nM
CNC(=O)C1(NC(=O)C(=O)c2c(C)c(C(=O)Nc3ccc(F)c(Cl)c3)n3c2C[C@@H](O)C3)CC(F)(F)C1 [Example 16, (R)—N-(3-chloro-4-fluorophenyl)-7-(2-((3,3-difluoro-1-(methylcarbamoyl)cyclobutyl)amino)-2-oxoacetyl)-2-hydroxy-6-methyl-2,3-dihydro-1H-pyrrolizine-5-carboxamide] | 708 min | 456 nM
CNC(=O)C1(NC(=O)C(=O)c2c(C)c(C(=O)Nc3ccc(F)c(Cl)c3)n3c2[C@@H]2C[C@@H]2C3)CC(F)(F)C1 [Example 33, (1aS,6bR)—N-(3-chloro-4-fluorophenyl)-6-(2-((3,3-difluoro-1-(methylcarbamoyl)cyclobutyl)amino)-2-oxoacetyl)-5-methyl-1,1a,2,6b-tetrahydrocyclopropa[a]pyrrolizine-4-carboxamide] | 258 min | 27.2 nM
CNC(=O)C1(NC(=O)C(=O)c2c(C)c(C(=O)Nc3ccc(F)c(Cl)c3)n3c2CCC3)CC1 [Example 105, N-(3-chloro-4-fluorophenyl)-6-methyl-7-(2-((1-(methylcarbamoyl)cyclopropyl)amino)-2-oxoacetyl)-2,3-dihydro-1H-pyrrolizine-5-carboxamide] | 1460 min | 170 nM
Cc1c(C(=O)C(=O)NC2(c3c[nH]nn3)CC2)c2n(c1C(=O)Nc1cc(F)c(F)cc1F)CCC2 [Example 90, 7-(2-((1-(1H-1,2,3-triazol-4-yl)cyclopropyl)amino)-2-oxoacetyl)-6-methyl-N-(2,4,5-trifluorophenyl)-2,3-dihydro-1H-pyrrolizine-5-carboxamide] | 1880 min | 183 nM
Cc1c(C(=O)C(=O)NC2(c3c[nH]nn3)CC2)c2n(c1C(=O)Nc1cccc(Cl)c1)CCC2 [Example 74, 7-(2-((1-(1H-1,2,3-triazol-4-yl)cyclopropyl)amino)-2-oxoacetyl)-N-(3-chlorophenyl)-6-methyl-2,3-dihydro-1H-pyrrolizine-5-carboxamide] | 1330 min | 42 nM
Cc1c(C(=O)C(=O)NC2(c3c[nH]nn3)CC(F)(F)C2)c2n(c1C(=O)Nc1cc(F)c(F)c(F)c1)CCC2 [Example 53, 7-(2-((3,3-difluoro-1-(1H-1,2,3-triazol-4-yl)cyclobutyl)amino)-2-oxoacetyl)-6-methyl-N-(3,4,5-trifluorophenyl)-2,3-dihydro-1H-pyrrolizine-5-carboxamide] | 648 min | 3.2 nM
Cc1c(C(=O)C(=O)NC2(c3c[nH]nn3)CC2)c2n(c1C(=O)Nc1ccc(F)c(Cl)c1)[C@@H]1C[C@@H]1C2 [Example 52, (1aR,6aR)-5-(2-((1-(1H-1,2,3-triazol-4-yl)cyclopropyl)amino)-2-oxoacetyl)-N-(3-chloro-4-fluorophenyl)-4-methyl-1,1a,6,6a-tetrahydrocyclopropa[b]pyrrolizine-3-carboxamide] | 252 min | 7.7 nM
